This passage reports Ratio and Activity results from ChEMBL document CHEMBL1944620, “Discovery of non-oxime reactivators using an in silico pharmacophore model of oxime reactivators of OP-inhibited acetylcholinesterase” (Eur J Med Chem, 2012).

The subject of one experiment is Anguilliformes. Nature of the experiment: Reactivation of DFP-inhibited eel AChE by spectrophotometry relative to 2-PAM.
With `Cc1nc(-c2ccccn2)nc(N2CCN(CCO)CC2)c1Cl`, the Ratio is below 10.

As to `O=[N+]([O-])c1ccc(N2CCCN(C(=S)Nc3ccc(F)cc3Br)CC2)nc1`, the Ratio is below 10. Same read-out and setting: the value for `FC(F)(F)c1ccnc(NCCNC(=S)NCc2ccco2)n1` was below 10; that for `COc1cc(/C=N/NC(=O)c2cnc3ccccc3c2)cc(Br)c1OCc1ccccc1Cl` was below 10.

Another experiment relates to Anguilliformes. As to the kind of experiment: Reactivation of DFP-inhibited eel AChE assessed as reactivation efficacy by spectrophotometry.
With `O=C1CCC(=O)N1c1ccc(S(=O)(=O)N2CCN(c3nccc(C(F)(F)F)n3)CC2)cc1`, the Activity stood at 48.4 mmol⁻¹ min⁻¹. Regarding `Cc1cc(C)cc(NC(=O)N2CCCN(c3ncccc3[N+](=O)[O-])CC2)c1`, the Activity is 77.2 mmol⁻¹ min⁻¹. `O=C(Nc1cc(F)cc(F)c1)N1CCCN(c2ncc(C(F)(F)F)cc2Cl)CC1`: the Activity was 80.7 mmol⁻¹ min⁻¹.

Turning to `COc1cccc(C(=O)Oc2c(Br)cc(Br)cc2/C=N/NC(=O)CNC(=O)c2ccc(OC)c(OC)c2)c1`, the Activity was 56.2 mmol⁻¹ min⁻¹. On the same count and under the same terms, for `COc1ccc(CCNCC(O)Cn2ccc3ccccc32)cc1OC` (centres undefined) the value was 79.6 mmol⁻¹ min⁻¹; for `CC(CO)(CO)NCC(O)COc1ccc(OC(F)(F)F)cc1` (centres undefined), 73 mmol⁻¹ min⁻¹. Turning to `OC1CCN(CC(O)COc2ccc(Cl)c(Cl)c2)CC1` (centres undefined), the Activity came to 34.3 mmol⁻¹ min⁻¹. The same measure, in the same setting: the value for `COc1ccc(/C=C(/NC(=O)c2ccccc2)C(=O)N/N=C\c2cc(Br)c(OCc3ccccc3Cl)c(OC)c2)cc1` was 673 mmol⁻¹ min⁻¹. Still for that read-out and setting: the value for `Cc1ccc(S(=O)(=O)NC(=O)NCCCNC(=O)OC(C)(C)C)cc1` was 76 mmol⁻¹ min⁻¹; that for `OC(CNCCNc1ccc(C(F)(F)F)cn1)COc1ccccc1` (centres undefined) was 20.6 mmol⁻¹ min⁻¹; that for `Cc1nc(-c2ccccn2)nc(N2CCN(CCO)CC2)c1Cl` was 13.9 mmol⁻¹ min⁻¹. Same read-out and setting: for `OC(COc1ccc(Cl)c(Cl)c1)CN1CCN(c2nc3ccc(Cl)cc3s2)CC1` (centres undefined) the value was 25.1 mmol⁻¹ min⁻¹; for `O=[N+]([O-])c1ccc(OCC(O)CNCCNc2nccc(C(F)(F)F)n2)cc1` (centres undefined), 212 mmol⁻¹ min⁻¹. `FC(F)(F)c1ccnc(Oc2ccc(/C=N/NC(=S)Nc3cc(Cl)ccc3Cl)cc2)n1`: the Activity was determined as 53.6 mmol⁻¹ min⁻¹. Turning to `OC(CNCCNc1nccc(C(F)(F)F)n1)Cn1ccc2ccccc21` (centres undefined), the Activity is 57 mmol⁻¹ min⁻¹. On the same count and under the same terms, the value for `CCOC(=O)c1cc(C#N)c(C)nc1N1CCN(S(=O)(=O)c2ccccc2)CC1` was 24.7 mmol⁻¹ min⁻¹; that for `COc1cc(C(=O)Oc2c(Br)cc(Br)cc2/C=N/NC(=O)C(O)(c2ccccc2)c2ccccc2)cc(OC)c1OC` was 39.9 mmol⁻¹ min⁻¹; that for `OC(CNCCNc1nccc(C(F)(F)F)n1)COc1ccccc1` (centres undefined) was 26.3 mmol⁻¹ min⁻¹.

Regarding `O=C(Nc1ccc(Cl)cc1)N1CCCN(c2ccc(C(F)(F)F)cc2[N+](=O)[O-])CC1`, the Activity amounted to 101 mmol⁻¹ min⁻¹.

In the case of `COc1cc(/C=N/NC(=O)c2ccc(N)cc2)cc(Br)c1OCc1ccccc1Cl`, the Activity is 214 mmol⁻¹ min⁻¹. For `OC(CNCCNc1nccc(C(F)(F)F)n1)COc1cccc(C(F)(F)F)c1` (centres undefined), the Activity is 38 mmol⁻¹ min⁻¹.

For `OC(CNCCNc1nccc(C(F)(F)F)n1)COc1ccc(OC(F)(F)F)cc1` (centres undefined), the Activity was determined as 34.4 mmol⁻¹ min⁻¹.

In the case of `OC(CNCCNc1nccc(C(F)(F)F)n1)CSc1ccc(F)cc1` (centres undefined), the Activity amounted to 30.2 mmol⁻¹ min⁻¹. The same measure, in the same setting: the value for `COc1cc(/C=N/NC(=O)c2ccccc2NC(C)=O)cc(Br)c1OCc1ccccc1Cl` was 33.1 mmol⁻¹ min⁻¹; that for `OC(CNCCNc1nccc(C(F)(F)F)n1)COc1ccc(Cl)c(Cl)c1` (centres undefined) was 75.2 mmol⁻¹ min⁻¹; that for `OC(CNCCNc1ccc(C(F)(F)F)cn1)CSc1ccc(F)cc1` (centres undefined) was 71.6 mmol⁻¹ min⁻¹. On the same count and under the same terms, for `O=[N+]([O-])c1ccc(N2CCCN(C(=S)Nc3ccc(F)cc3Br)CC2)nc1` the value was 10.7 mmol⁻¹ min⁻¹. The same measure, in the same setting: the value for `FC(F)(F)c1ccnc(NCCNC(=S)NCc2ccco2)n1` was 11 mmol⁻¹ min⁻¹. With `COc1ccc(C2NCCc3c2[nH]c2ccc(OCc4ccccc4)cc32)cc1COc1c(Br)cc(Br)cc1Br` (centres undefined), the Activity was 102 mmol⁻¹ min⁻¹.

In the case of `CCOC(=O)c1cc(-c2nc(C(=O)NN)cs2)c(C)nc1C(F)(F)F`, the Activity amounted to 156 mmol⁻¹ min⁻¹. Still for that read-out and setting: the value for `S=C(NC1CCCCCCC1)N1CCCN(c2nc3ccc(Cl)cc3s2)CC1` was 26.7 mmol⁻¹ min⁻¹; that for `COc1cc(/C=N/NC(=O)c2cnc3ccccc3c2)cc(Br)c1OCc1ccccc1Cl` was 13 mmol⁻¹ min⁻¹. On the same count and under the same terms, the value for `C[n+]1ccccc1C=NO` was 2.61 mmol⁻¹ min⁻¹.

Consider `OC(CNCCNc1nccc(C(F)(F)F)n1)CSc1ccccc1` (centres undefined), for which the Activity worked out at 91.1 mmol⁻¹ min⁻¹. Same read-out and setting: for `CC(C)(C)OC(=O)N1CCCN(C(=S)Nc2ccccc2N2CCOCC2)CC1` the value was 65.9 mmol⁻¹ min⁻¹.
